In a melting point compilation (Tetko et al.; mined from patent text by program, amines drawn as free bases though some values may be those of a salt):

Row | Structure (SMILES) | melting point [°C]
1 | COCCSC(F)(F)C(O)(Cn1cncn1)c1ccc(F)cc1F (centres undefined) | 80 to 81
2 | CCOc1ccc(NC(=S)SC)cc1F | 108
3 | COC(=O)C(C(=O)OC)c1ccc([N+](=O)[O-])cc1C(=O)O | 163 to 164
4 | CN(CC[C@H]1CC[C@H](C(=O)O)CC1)C(=O)OC(C)(C)C | 212 to 214
5 | CC(C)Oc1ccc(N2CCCNCC2)cc1 | 62 to 64
6 | Cc1cc(CO)nc(N2CCN(c3ccnc([C@@H](C)O)n3)CC2)n1 | 139 to 140
7 | O=C1C=C(c2ccc[nH]2)C(=O)c2ccccc21 | 155 to 158
8 | Cc1cc(NC(=O)CN(CC(=O)O)CC(=O)O)ccc1Br | 206 to 209
9 | NN1CCN(CCc2c[nH]c3ccccc23)CC1 | 115 to 117
10 | COCCCNC(=O)c1ccc(C(=O)N2CCN(c3ncccc3NC(C)C)CC2)nc1 | 95 to 96
11 | CC(C)(OCc1nn(Cc2ccccc2)c2ccccc12)C(=O)N1CCOCC1 | 135 to 137
12 | CC(CO)Oc1cc(Oc2ccc(C(=O)N3CCC3)cc2F)cc(C(=O)O)c1 (centres undefined) | 133
13 | COC(=O)/C=C/c1ccc(NC(C)=O)nc1 | 172 to 200
14 | Cc1cc(C(C)(C)O)ccc1-c1ccccc1 | 60 to 64
15 | CCOC(=O)N1CCN(c2nc(NC3CC3)ccc2F)CC1 | 68 to 70
16 | CC(=O)c1c(C)sc(C)c1CC(N)=O | 123 to 125
17 | Clc1ccc(N2CCN(Cc3cn4cc(Br)ccc4n3)CC2)c(Cl)c1 | 137 to 138
18 | CC(=O)NC(=S)N1CCSC1c1ccccc1OCCN1CC=C(c2cccc(F)c2)CC1 (centres undefined) | 135 to 136
19 | Cc1ccc(Br)cc1-c1c(O)c(C)nn(C)c1=O | 217 to 218
20 | CC1(C)CCC(C)(C)c2cc(-c3ccc4cc(O)ccc4c3)ccc21 | 104

Row | Structure (SMILES) | melting point [°C]
21 | COc1cc2nccn2c(OC)n1 | 120 to 121
22 | CC[Si](CC)(CC)OC1C(=O)NC1c1cccs1 (centres undefined) | 70 to 71
23 | CCOC(=O)c1cnn2c1nc(NC)c1cnc3c(cnn3CC)c12 | 321 to 322
24 | Cc1ccc(S(=O)(=O)n2c(I)cc3cccnc32)cc1 | 105 to 107
25 | NC(=O)c1ccc(F)nc1N | 198 to 200
26 | O=Cc1c(Cl)nc2ccc(Cl)cn12 | 165 to 166
27 | C[C@@H](O[C@H]1CCCN(Cc2n[nH]c(=O)[nH]2)[C@H]1c1ccccc1)c1cccc(Cl)c1 | 164 to 165
28 | Cc1nnsc1C(=O)Nc1ccc(-n2nc(C(F)(F)F)cc2C2CC2)c(F)c1 | 105 to 112
29 | CC(=O)c1cc2c(Cl)cc(F)c(-n3c(=O)cc(C(F)(F)F)n(C)c3=O)c2o1 | 193 to 194
30 | CC(c1ccc(NC=O)cc1)n1ccnc1 (centres undefined) | 129
31 | Cc1nn(-c2cc3nc(S)sc3cc2Br)c(=O)n1C(F)F | 254 to 256
32 | O=C1C(=C(O)C(F)(F)F)CCc2ccccc21 | 48 to 49
33 | CCc1nc2c(N)nc3ccccc3c2n1CC1(C(N)=O)CCC1 | 227 to 230
34 | Cc1[nH]cnc1CSCCNc1[nH]ccc1[N+](=O)[O-] | 161 to 162
35 | CN1CCN(c2ccc(-c3cnn4c(N)c(-c5ccccc5Cl)cnc34)cc2)CC1 | 197 to 200
36 | Oc1ccc(Br)cc1Cc1ncc[nH]1 | 163 to 169
37 | CN(C)CCCN1N=C2C(=Cc3ccccc3)CS(=O)(=O)CC2C1c1ccccc1 (centres undefined) | 127 to 129
38 | CCSCc1cccc(-c2nc(=O)c3ccccc3s2)n1 | 142 to 144
39 | CN1CCC2(C)c3cc(OC(=O)N4CCc5ccccc5C4)ccc3N(C)C12 (centres undefined) | 118 to 119

Results, then the compound that gave them:

Row | melting point [°C] | Structure (SMILES)
40 | 149 to 152 | CCc1nc2c(C)cc(C)nc2n1Cc1ccc(-c2ccccc2-c2nc(=O)o[nH]2)cc1
41 | 99 to 101 | COc1cc(N)c(Cl)cc1C(=O)NC[C@H]1CCN(CCCCCC(=O)c2ccccc2)C[C@H]1OC (relative stereo)
42 | 150 to 152 | Nc1nc(Nc2ccc(SC3(Cl)C=CC(C(F)(F)F)=CN3)cc2)sc1C(=O)c1ccccc1[N+](=O)[O-] (centres undefined)
43 | 135 to 138 | COc1cccc(NC(=O)Nc2ccc(N3CCN(C(=O)Nc4ccc(OCCO)cc4C(F)(F)F)CC3)cc2)c1OC
44 | 83 to 84 | COC(=O)[C@H](CC(=O)OC(C)(C)C)NC(=O)c1cccc(NC(=O)c2ccc(C#N)cc2)c1
45 | 135 to 140 | COC(=O)c1c(-c2ccco2)ccnc1C(=O)c1nc(OC)cc(OC)n1
46 | 311 to 313 | O=c1cc(O)c2cccnc2n1-c1ccccc1
47 | 148 to 150 | CC(C)(C)c1ccc(/C=N/OCCOc2ccc(C(=O)O)c(OC(=O)c3ccc(C(C)(C)C)cc3)c2)cc1
48 | 97 to 100 | CC(=O)C(C)n1nc(C(=O)NC2CN(C)CCN(Cc3ccccc3)C2)c2ccccc21 (centres undefined)
49 | 78 to 79 | CCCCCCCOc1ccc(CCC(CO)(CCO)NC(=O)c2cc([N+](=O)[O-])cc([N+](=O)[O-])c2)cc1 (single isomer, unassigned; (+))
50 | 192 to 193 | CC(C)n1nc(-c2c(-c3ccccc3)nn3ccc(C(=O)NCc4cccnc4)cc23)ccc1=O
51 | 104 to 107 | Cc1ccc(C(=O)c2ccc(Cc3ccc(N)cn3)n2C)cc1
52 | 215 to 217 | CCCC(=O)c1cnc2c(OC)cccc2c1Nc1ccccc1C
53 | 80 to 82 | O=C(CCc1ccc(O)cc1)OCc1ccc([N+](=O)[O-])cc1
54 | 222 to 223 | COc1ccc(OCC2(Cc3c(C)[nH]c(=O)c(C(C)C)c3O)CC2)cc1
55 | > 225 | Cc1sc2c(Br)c3ccccc3c(-c3cc(C(C)C)c(OS(=O)(=O)c4ccc(C(=O)O)c(O)c4)c(C(C)C)c3)c2c1C
56 | 87 to 88 | COc1ccccc1OCC1SCCN1C(=O)CCl (centres undefined)
57 | 184 | COc1ccc(CN(C)CCOc2ccc(NC(=O)c3cccc4c(=O)c5cccc(OC)c5[nH]c34)cc2)cc1OC
58 | > 220 | O=[N+]([O-])c1cccc(-c2ccnc3[nH]c4ccccc4c23)c1
59 | 195 to 197 | CCOCC(=O)Nc1ccc(C2=NNC(=O)CC2C)cc1 (centres undefined)
60 | 133 to 134 | O=C(O)CCC(=NOCc1ccc(OCc2ccc3ccccc3n2)cc1)c1ccccc1
61 | 168 | COC(=O)CCc1sc(NC(=O)C[C@H]2O[C@H](c3cccc(OC)c3OC)c3cc(Cl)ccc3N(CC(C)(C)COC(C)=O)C2=O)nc1-c1ccccc1
62 | 196 to 197 | CC(C)(O)C(O)c1ccc(-c2ccc(/C(=C/C3CCOCC3)c3ccc(S(=O)(=O)C4CC4)cc3)[nH]2)nc1 (centres undefined)
63 | 177 to 178 | NC(=O)c1c(Cl)c(-c2ccccc2)n2c1CN(S(=O)(=O)c1ccc(F)cc1)CC2
64 | 80.5 | CCCCCCCc1ccc(-c2cnc(-c3ccc(OCCCCCC)c(F)c3)nc2)cc1
65 | 150 to 153 | COC(OC)c1cc(C)nc(NC(=O)NS(=O)(=O)c2ccccc2Cl)n1
66 | 174 to 175 | COc1cc(-c2ccccc2)c(C=O)cc1CC(=O)O
67 | 78 to 79 | CN1CCN(C(=O)CCCCCNC(=O)c2cc(OCc3ccccc3)ccc2OCc2ccccc2)CC1
68 | 58 to 61 | CCCCC1=NC2(CCCC2)C(=O)N1Cc1ccc(-c2ccccc2S(=O)(=O)Nc2onc(C)c2C)c(CCCC)c1
69 | 236 to 237 | CCOC(=O)c1ccnc(-c2nc(=O)c3ccccc3s2)c1
